The target in this experiment is T1, BRAF V600E (Homo sapiens, UniProt P15056+Q96SW2, V600E).
T1 construct: knock-in of the HiBiT tag to the endogenous BRAF V600E locus; host or cells: A375.10 (A375 clonal line, CRISPR HiBiT knock-in at the endogenous BRAF V600E locus)
Description: BRAF V600E HiBiT Degradation Assay. The format is cell-based. The method, boiled down:
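Endogenous HiBiT knock-in on BRAF V600E in A375 cells (clone A375.10); 11-point half-log series, top 10 μM, 2, 6 or 24 h at 37° C. Lytic HiBiT luminescence, background-subtracted, normalized to DMSO; 4-parameter fit gives DC50, Emax (residual protein) and IP (inflection point).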

Where [1] appears, read: read-out: HiBiT-Degradation A375.10 BRAF 2 hours Emax, A375.10 cells, BRAF V600E, 2 hours; residual protein remaining.
The mark [2] stands for this setting: A375.10 cells, BRAF V600E, 2 hours; inflection point; read-out: HiBiT-Degradation A375.10 BRAF 2 hours IP.
The mark [3] stands for this setting: A375.10 cells, BRAF V600E, 2 hours; read-out: HiBiT-Degradation A375.10 BRAF 2 hours DC50.

Like-named read-outs stand apart in the source and are kept apart here.

T1 sequence (P15056 whole entry V600E): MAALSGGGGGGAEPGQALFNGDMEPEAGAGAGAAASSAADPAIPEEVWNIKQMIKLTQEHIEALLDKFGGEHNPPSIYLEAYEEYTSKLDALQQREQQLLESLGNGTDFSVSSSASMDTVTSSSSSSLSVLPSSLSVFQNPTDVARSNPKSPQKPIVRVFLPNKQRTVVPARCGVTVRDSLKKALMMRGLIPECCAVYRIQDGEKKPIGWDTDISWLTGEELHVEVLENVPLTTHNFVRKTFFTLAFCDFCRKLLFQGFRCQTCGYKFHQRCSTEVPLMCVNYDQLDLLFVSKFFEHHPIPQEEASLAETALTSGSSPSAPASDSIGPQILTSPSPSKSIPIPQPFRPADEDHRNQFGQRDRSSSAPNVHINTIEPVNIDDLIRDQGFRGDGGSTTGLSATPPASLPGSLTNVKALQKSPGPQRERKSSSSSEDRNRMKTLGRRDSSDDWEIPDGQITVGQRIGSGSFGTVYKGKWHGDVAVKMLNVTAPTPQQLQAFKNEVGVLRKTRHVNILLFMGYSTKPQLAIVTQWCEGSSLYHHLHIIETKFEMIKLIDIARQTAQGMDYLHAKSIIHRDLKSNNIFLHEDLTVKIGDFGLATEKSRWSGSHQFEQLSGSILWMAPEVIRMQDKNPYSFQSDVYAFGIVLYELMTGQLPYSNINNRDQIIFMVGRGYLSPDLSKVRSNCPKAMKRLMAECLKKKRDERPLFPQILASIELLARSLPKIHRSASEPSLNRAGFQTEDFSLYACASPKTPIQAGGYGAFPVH
T1 sequence (Q96SW2 whole entry): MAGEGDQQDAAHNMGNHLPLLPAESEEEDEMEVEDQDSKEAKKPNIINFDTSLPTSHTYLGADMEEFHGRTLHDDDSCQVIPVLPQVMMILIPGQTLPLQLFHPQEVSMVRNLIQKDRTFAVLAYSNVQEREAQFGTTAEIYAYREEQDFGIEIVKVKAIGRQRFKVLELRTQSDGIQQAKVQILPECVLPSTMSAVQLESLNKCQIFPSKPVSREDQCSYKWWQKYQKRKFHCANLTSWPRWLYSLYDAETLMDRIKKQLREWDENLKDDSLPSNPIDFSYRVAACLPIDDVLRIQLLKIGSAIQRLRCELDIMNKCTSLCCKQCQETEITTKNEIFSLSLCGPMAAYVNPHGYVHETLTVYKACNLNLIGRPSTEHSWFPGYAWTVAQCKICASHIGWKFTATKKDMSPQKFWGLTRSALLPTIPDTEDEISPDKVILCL
T1 sequence (Q16531 whole entry partner): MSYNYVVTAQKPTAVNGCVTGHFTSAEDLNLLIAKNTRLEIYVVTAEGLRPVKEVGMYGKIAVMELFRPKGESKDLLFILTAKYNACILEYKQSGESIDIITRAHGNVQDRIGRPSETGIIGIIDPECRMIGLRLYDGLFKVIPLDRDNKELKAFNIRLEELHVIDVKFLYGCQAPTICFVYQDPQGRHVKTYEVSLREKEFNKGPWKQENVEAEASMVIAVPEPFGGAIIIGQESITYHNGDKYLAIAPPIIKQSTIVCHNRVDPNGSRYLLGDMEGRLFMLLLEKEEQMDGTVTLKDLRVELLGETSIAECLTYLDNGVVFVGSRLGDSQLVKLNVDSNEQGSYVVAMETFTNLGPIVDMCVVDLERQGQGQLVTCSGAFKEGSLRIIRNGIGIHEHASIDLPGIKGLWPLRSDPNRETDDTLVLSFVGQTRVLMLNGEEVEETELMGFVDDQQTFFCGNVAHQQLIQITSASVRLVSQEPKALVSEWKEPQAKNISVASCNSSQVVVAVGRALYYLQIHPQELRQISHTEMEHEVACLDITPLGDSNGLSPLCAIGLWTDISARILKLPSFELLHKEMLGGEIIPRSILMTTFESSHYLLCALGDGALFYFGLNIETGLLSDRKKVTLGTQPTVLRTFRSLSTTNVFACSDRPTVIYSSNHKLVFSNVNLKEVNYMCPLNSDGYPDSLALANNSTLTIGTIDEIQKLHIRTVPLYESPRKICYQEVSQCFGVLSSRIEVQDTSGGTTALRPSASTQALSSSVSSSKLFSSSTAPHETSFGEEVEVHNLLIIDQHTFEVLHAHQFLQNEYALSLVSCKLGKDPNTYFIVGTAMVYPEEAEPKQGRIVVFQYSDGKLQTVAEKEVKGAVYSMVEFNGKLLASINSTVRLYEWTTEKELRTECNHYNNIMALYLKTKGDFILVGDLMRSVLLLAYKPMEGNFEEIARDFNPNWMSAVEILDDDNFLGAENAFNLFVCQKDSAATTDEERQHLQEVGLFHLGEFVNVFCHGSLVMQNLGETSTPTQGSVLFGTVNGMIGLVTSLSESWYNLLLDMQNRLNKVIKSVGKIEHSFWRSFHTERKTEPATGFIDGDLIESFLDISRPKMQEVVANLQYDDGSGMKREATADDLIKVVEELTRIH

In general, Emax refers to the maximal effect, on the per cent scale that the assay sets. On to `Cn1nc(N2CCC(=O)NC2=O)c2cc(F)c(N3CC4(CC(N5CCC6(CC5)CC(n5cnc7ccc(Oc8c(F)ccc(NS(=O)(=O)N9CC[C@@H](F)C9)c8C#N)cc7c5=O)C6)C4)C3)cc21` [Compound 261, (3R)-N-[2-cyano-3-[3-[7-[2-[3-(2,4-dioxohexahydropyrimidin-1-yl)-5-fluoro-1-methyl-indazol-6-yl]-2-azaspiro[3.3]heptan-6-yl]-7-azaspiro[3.5]nonan-2-yl]-4-oxo-quinazolin-6-yl]oxy-4-fluoro-phenyl]-3-fluoro-pyrrolidine-1-sulfonamide], for which the DC50 (read-out: HiBiT-Degradation A375.10 BRAF 2 hours DC50; A375.10 cells, BRAF V600E, 2 hours) is under 1000 nM and the DC50 (read-out: HiBiT-Degradation A375.10 BRAF 2 hours IP; A375.10 cells, BRAF V600E, 2 hours; inflection point) was under 1000 nM. Moreover, under setting [1], the Emax is under 50%.
With `CC(C)S(=O)(=O)Nc1ccc(F)c(Oc2ccc3ncn(C4CC5(CCN(C6CC7(C6)CN(c6cc8c(cc6F)c(N6CCC(=O)NC6=O)nn8C)C7)CC5)C4)c(=O)c3c2)c1C#N` (stereo not drawn) [Compound 273, N-[2-cyano-3-[3-[7-[2-[3-(2,4-dioxohexahydropyrimidin-1-yl)-5-fluoro-1-methyl-indazol-6-yl]-2-azaspiro[3.3]heptan-6-yl]-7-azaspiro[3.5]nonan-2-yl]-4-oxo-quinazolin-6-yl]oxy-4-fluoro-phenyl]propane-2-sulfonamide], the DC50 runs as follows: under setting [2], under 1000 nM; under setting [3], under 1000 nM. The Emax under setting [1] is under 50%.
For the compound `Cn1nc(N2CCC(=O)NC2=O)c2cc(F)c(N3CC4(CC(N5CCC6(CC5)CC(n5cnc7ccc(Oc8c(F)ccc(NS(=O)(=O)N9C[C@H]%10C[C@H]%10C9)c8C#N)cc7c5=O)C6)C4)C3)cc21` (stereo partly drawn) [Compound 277, (1R,5S)-N-[2-cyano-3-[3-[7-[2-[3-(2,4-dioxohexahydropyrimidin-1-yl)-5-fluoro-1-methyl-indazol-6-yl]-2-azaspiro[3.3]heptan-6-yl]-7-azaspiro[3.5]nonan-2-yl]-4-oxo-quinazolin-6-yl]oxy-4-fluoro-phenyl]-3-azabicyclo[3.1.0]hexane-3-sulfonamide], the DC50 is under 1000 nM under setting [2] and under 1000 nM under setting [3]. Further, under setting [1], the maximal effect (Emax) is under 50%.

The values are drawn from US20260297060A1, “COMPOUNDS FOR THE DEGRADATION OF MUTANT BRAF” (C4 THERAPEUTICS, INC., priority 2023, published 2026).
